Assay results published in US12419891B2, “Compositions for the treatment of pathogenic- and/or chemical-induced lung injury and for the treatment of cancer and methods of using same” (Duke University, priority 2019, dated 2025).

What was measured:
[1] = test system: Basal cells (bronchospheres); assay: bronchosphere 3D Matrigel culture assay; format: cell-based, human; conditions: for SOX2 (basal cell marker) expression, immunoblot / acetylated α-tubulin (ciliated cell marker) expression, immunoblot: bronchosphere lysates
Experimental: The effect of Abl kinase inhibition on the development of bronchospheres in a 3D Matrigel culture assay was also evaluated. Basal cells were cultured in Matrigel at passage 1 and treated with vehicle control, the Abl kinase inhibitor, GNF5, or the Abl kinase activator, DPH, for three days starting two days after plating the cells.

[2] = test system: Primary HBECs; assay: transepithelial electrical resistance assay in ALI cultures of primary HBECs; format: cell-based, human; conditions: vs vehicle control-treated cells
Excerpt: Thus, inhibition of the Abl kinases in 3D ALI cultures of primary HBECs promotes basal cell differentiation and enhances barrier function.

[3] = test system: Primary HBECs; assay: primary HBECs pre-treated with Abl kinase inhibitor before exposure to S. aureus, Western blot; format: cell-based, human; conditions: pre-treated 24 hours prior to exposure to S. aureus
Excerpt: Cell Culture. Primary human bronchial epithelial cells were isolated as previously described (Fulcher M L & Randell S H (2013) Methods Mol Biol 945:109-121) and passage 1 cells were derived from human lungs unsuitable for transplantation from non-smoker organ donors without pre-existing lung disease under protocol #03-1396 approved by the University of North Carolina at Chapel Hill Biomedical Institutional Review Board. Informed consent was obtained from authorized representatives of all organ donors. 30,000 cells were plated into each well of 6.5 mm polyester inserts containing 0.4 μm pores (Sigma-CLS3470) coated with Type IV human placenta collagen (Sigma-C7521). 100 μl of ALI medium was added to the insert and 600 μl of ALI medium was added to the well at the time of plating. At Day 3, ALI medium from the insert was removed while that in the well was changed daily for 28 days. At Day 28, the inserts containing the cells were removed from their wells, washed with PBS, and incubated at 37° C. for 30 minutes with 1×10^8 CFU S. aureus. Cells were then washed three times with PBS and returned to wells containing 600 μl of ALI medium to regrow. […]
Immunoblotting. […] Protein was quantified, and equal amounts of protein was separated by SDS-polyacrylamide gel electrophoresis (BioRad-1610183) and transferred onto 0.2 μm pore nitrocellulose membranes. […]

[4] = test system: primary human bronchial epithelial cells (HBECs); assay: basal cell differentiation of primary HBECs in air-liquid interface (ALI) cultures; format: cell-based; conditions: 7 days after plating; vs vehicle
Excerpt: Cell Culture. Primary human bronchial epithelial cells were isolated as previously described (Fulcher M L & Randell S H (2013) Methods Mol Biol 945:109-121) and passage 1 cells were derived from human lungs unsuitable for transplantation from non-smoker organ donors without pre-existing lung disease under protocol #03-1396 approved by the University of North Carolina at Chapel Hill Biomedical Institutional Review Board. Informed consent was obtained from authorized representatives of all organ donors. 30,000 cells were plated into each well of 6.5 mm polyester inserts containing 0.4 μm pores (Sigma-CLS3470) coated with Type IV human placenta collagen (Sigma-C7521). 100 μl of ALI medium was added to the insert and 600 μl of ALI medium was added to the well at the time of plating. At Day 3, ALI medium from the insert was removed while that in the well was changed daily for 28 days. At Day 28, the inserts containing the cells were removed from their wells, washed with PBS, and incubated at 37° C. for 30 minutes with 1×10^8 CFU S. aureus. Cells were then washed three times with PBS and returned to wells containing 600 μl of ALI medium to regrow. Cells were harvested at multiple time points up to five days after injury for protein or RNA extraction. All cultures were maintained at 37° C. in humidified air containing 5% CO2.
First, the role of Abl kinases in basal cell differentiation in primary human bronchial epithelial cells (HBECs) in air-liquid interface (ALI) cultures was examined. Basal cells were isolated from human donor lungs and plated on polyester transwell inserts at passage 1. Once the cells were 100% confluent (3-4 days after plating), media from the top chamber of the transwell insert was removed to promote differentiation of the basal cells into a pseudostratified ciliated epithelium (FIG. 19A). […] Among these are acetylated α-tubulin and SNTN (ciliated cell marker) and SCGB3A2 (secretory cell marker) (FIG. 19C).
To identify whether Abl kinase inhibition promotes early (Krt5+ cells→Krt8+ cells) or late (Krt8+→acetylated α-tubulin or Scgb1a1+ cells) differentiation, a time course experiment in primary HBEC ALI cultures was conducted. Primary HBECs were plated on polyester transwell inserts and treated with vehicle control or GNF5 24 hours after plating.

[5] = test system: mice exposed to S. aureus; assay: mouse model of pneumonia induced by nasal insufflation of S. aureus; format: in vivo
Experimental: Bacteria. S. aureus (Ssp. aureus, No. 25923; American Type Culture Collection) was grown as previously described (Suliman H B et al. (2017) Mitochondrial quality control in alveolar epithelial cells damaged by S. aureus pneumonia in mice. American journal of physiology. Lung cellular and molecular physiology 313(4):L699-L709). Dilutions of 5×10^8 CFU were used for mouse experiments, and dilutions of 1×10^8 CFU were used for cell culture experiments. S. pneumoniae (serotype 19, No. 49619; American Type Culture Collection) was grown as previously described (Gomez J C, et al. (2016) Journal of immunology 197(7):2864-2879). Dilutions of 6×10^5 CFU were used for mouse experiments.
CC10 (Scgb1a1)-CreERT; Rosa26R-CAG-farnesylated GFP (Rosa26-fGFP) and SPC (Sftpc)-CreERT2; Rosa26-tdTomato mice were kindly provided by Dr. Mark Onaitis and generated by Dr. Brigid Hogan at Duke University and have been previously described (Rawlins E L, et al. (2009) Cell stem cell 4(6):525-534, Xu X, et al. (2012) Proc Natl Acad Sci USA 109(13):4910-4915). These mice were crossed with Abl1^flox/flox mice (Moresco E M, et al. (2005) J Neurosci 25(26):6105-6118) into a C57BL/6 genetic background. Sox2^tmHoch/J mice (referred to as SOX2-eGFP mice in the text) were purchased from the Jackson Laboratory. Gt(Rosa) 26Sor^tm9(EGFP/Rpl10z)Amc/J (referred to as L10-eGFP in the text) mice were purchased from the Jackson Laboratory and were crossed to CC10-CreERT; Abl1^flox/flox mice into a C57BL/6 genetic background for the TRAP experiments. To induce expression of Cre-recombinase for both TRAP experiments and lineage tracing experiments, 8to 20-week-old male and female mice were injected intraperitoneally four times every other day with 0.25 mg/g body weight Tamoxifen (Sigma-T5648) in corn oil (Spectrum-CO136). Exposure to S. aureus was initiated 15 days after the last dose of Tamoxifen. Alternatively, mice were inoculated with purified Adenovirus5-CC10-Cre virus obtained from the University of Iowa Viral Vector Core Facility and generated by Dr. Anton Berns (Netherlands Cancer Institute). 10 μL of stock virus solution was mixed in 30 μL of Minimum Essential Medium and delivered intranasally twice, three days apart, three weeks prior to induction of S. aureus pneumonia. Mice were anesthetized using 0.3 mg xylazine and […] ketamine intraperitoneally prior to intranasal inoculation with a 50 μL dilution of 5×10^8 S. aureus. The mice were monitored daily for weight loss and signs of respiratory distress and euthanized in an isofluorane chamber at days 0, 1, 2, and 3 after inoculation. All experiments were performed under the Duke University IACUC approved protocols: A098-16-04 and A130-16-06. Male and female mice at different ages (8 to 20 weeks old) were evaluated for differential response to drug (Abl kinase inhibitors and tamoxifen) and/or injury, and no significant effects of age and gender were observed.
Inhibitors. GNF5 (N-(2-Hydroxyethyl)-3-(6-(4-(trifluoromethoxy)phenylamino)pyrimidin-4-yl)benzamide) was synthesized at the Duke University's Small Molecule Synthesis Facility, and validated by LC-MS and 1H-NMR/FT-IR spectra and with cell-based assays that confirm potencies and cell signaling inhibitory activities. For in vivo experiments, GNF5 was prepared in a suspension with 0.5% methylcellulose and 0.5% Tween-80 at a concentration of 10 mg/mL, and mice were treated with either 20 mg/kg, 40 mg/kg, or 100 mg/kg b.i.d. via oral gavage.
Bronchoalveolar lavage preparation and assays. Bronchoalveolar lavage (BAL) fluid was collected immediately after euthanasia three days after exposure to S. aureus as previously described (Suliman H B, et al. (2017) Lung cellular and molecular physiology 313(4):L699-L709). Bilateral BAL was performed using two 1 mL aliquots of sterile PBS with approximately 75-80% retrieval per mouse. […]

Row | Compound | SOX2 (basal cell marker) expression, immunoblot [1] | acetylated α-tubulin (ciliated cell marker) expression, immunoblot [1] | bronchosphere growth: basal cell proliferation and differentiation ([1]; treated three days starting two days after plating) | transepithelial electrical resistance across monolayer [2] | expression of downstream transcriptional targets of YAP (Birc5, c-Myc, Cyclin D3) [3] | Ki67 (proliferation marker) protein expression ([1]; vs untreated cells) | acetylated α-tubulin expression (3D reconstruction) [4] | acetylated α-tubulin protein expression (Western blot) [4] | lung injury ([5]; FIG. 9F, treatment 24 h after injury) | BAL protein concentration ([5]; day 3 post-infection, treatment started 24 hours after injury (Post))
1 | O=C1NC(=O)C(c2cn(-c3ccccc3)nc2-c2ccc(F)cc2)N1 (stereo not drawn) [DPH] | increased expression of the basal cell marker, SOX2 | decreased expression of acetylated α-tubulin | reduced bronchosphere growth and differentiation | – | – | – | – | – | – | –
2 | Cc1cn(-c2cc(NC(=O)c3ccc(C)c(Nc4nccc(-c5cccnc5)n4)c3)cc(C(F)(F)F)c2)cn1 [nilotinib] | decrease in the basal cell marker, SOX2 | increase in the ciliated cell marker, acetylated α-tubulin | – | increased resistance | decreased transcript and protein expression | increase in protein expression of the proliferation marker, Ki67 | increase in expression of acetylated α-tubulin | increase in protein expression of acetylated α-tubulin | significant reduction in lung injury | reduction in protein in the airspace
